Assay results reported in patent US20250011719A1, “NEW METHOD FOR IMPROVING QUALITY OF PLATELETS” (SHANGHAI SYNVIDA BIOTECHNOLOGY CO. LTD., priority 2021, published 2025).

Experiments:
[1] = tested on: human apheresis platelets; experiment: Mitochondrial potential difference (JC1/TMRM flow cytometry) of stored apheresis platelets; assay type: cell-based
Experimental: (§1) An appropriate amount of apheresis platelets was added to a 50 ml centrifuge tube (the volume should not exceed 15 ml/tube). The mouth of the 50 ml centrifuge tube was covered and fixed with a clinical platelet storage bag as a gas-permeable membrane, placed on a horizontal shaker. The speed of the shaker was determined according to the volume inside the tube, ensuring the platelets were fully shaken and fully exposed to oxygen for respiration without touching the gas-permeable membrane.
9.1 Changes in platelet mitochondrial potential difference were detected by JC1 fluorescent dyes: A JC1 working solution was prepared according to conventional methods. Positive control platelets were treated with CCCP to reduce mitochondrial membrane potential, that is, the positive control. Sampled platelets were diluted to 10^8/ml. 25 μl of platelets was taken and added with 25 μl of JC1 working solution. After mixed and incubated at 37° C. in the dark for 30 minutes, a 200 μl of 1×JC1 staining buffer was added for detecting the fluorescence intensity on the machine. The relative ratio of red and green fluorescence was used to represent the ratio of mitochondrial depolarization.
The platelet sampling and dilution were as described above. 50 μl Tyrodes's Buffer and 0.1 μl TMRM stock solution were added to a 50 μl dilution solution, incubated at 37° C. in the dark for 30 minutes, with 500 μl Tyrodes's Buffer added for detection on the machine. The fluorescence intensity of TMRM will red shift according to the change of mitochondrial potential difference. The fluorescence intensity was used to represent the level of mitochondrial potential difference.

[2] = tested on: human apheresis platelets; experiment: Platelet aggregation / responsiveness to agonists of stored apheresis platelets; assay type: cell-based
Experimental: as §1
By conventional methods, using a platelet aggregation instrument, 300 μl of 3×10^8 platelets/ml and the required […] were added to the aggregation tube and incubated at 37° C. for 3 minutes after gentle stirring. A baseline was established and the changes of an aggregation curve were observed within 5 minutes.

[3] = tested on: human apheresis platelets; experiment: Platelet apoptosis (Annexin V flow cytometry) of stored apheresis platelets; assay type: cell-based; conditions: for apoptosis ratio of platelets: N-acetylcysteine 5 mM, Mesna 50 uM, glutathione 200 uM, 7th day of storage, vs control group; for apoptosis ratio: Dorsomorphin 2HCl 1 uM, 4 uM, AICAR 0.1 uM, 0.5 uM, 4th day of storage, vs control
Experimental: as §1
Platelets were sampled according to conventional methods, then the concentration of platelets was diluted to 10^8/ml with Tyrodes's Buffer. 25 μl of platelets in the experimental group and control group were added to new EP tubes. Each tube was added with 5 μl of 10×Binding Buffer, 2 μl of FITC labeled Annexin V and 18 μl of Tyrodes's Buffer to a total of 50 μl in the reaction system. After incubating at room temperature in the dark for 15 minutes, 200 μl 1×Binding Buffer was added for detection on the machine, with a tube of unlabeled platelets as a negative control. The platelets labeled with Annexin V were detected within one hour after labeling and the FITC-positive cell population was the platelets in the process of apoptosis.

[4] = tested on: human apheresis platelets; experiment: Mitochondrial reactive oxygen species (Mitosox) of stored apheresis platelets; assay type: cell-based; conditions: for accumulation of intracellular reactive oxygen species: N-acetylcysteine 5 mM, Mesna 50 uM, glutathione 200 uM, 7th day of storage, vs control group; for mitochondrial reactive oxygen species levels: Dorsomorphin 2HCl 1 uM, 4 uM, AICAR 0.1 uM, 0.5 uM, 4th day of storage, vs control
Experimental: as §1
Using the conventional method, 25 μl platelets were diluted in equal proportions, added with 0.1 μl Mitosox reagent (5 mM) and incubated in the dark at 37° C. for 30 minutes, with 200 μl buffer added to detect the fluorescence intensity; stained the adherent cells: after centrifugation at 600 g for 5 minutes to remove the supernatant, the cells were resuspended in 200 μl Mitosox working solution, incubated at 37° C. in the dark for 30 minutes, centrifuged at 600 g for 5 minutes, washed twice with PBS and added with 200 μl PBS for resuspending and detecting the cells.

stored mouse platelets = experiment: Transfusion of stored mouse PRP into WT mice; assay type: in vivo; conditions: mouse PRP stored in vitro 1 day with NMN 0.5 mM, NAC 5 mM, AMPKi 4 uM alone or combined; biotin-labeled, infused into WT mice; PBS control
Experimental: (§2) Blood was taken from the abdominal aorta of mice. Apyrase (in a final concentration of 1 U/ml) and PGE1 (in a final concentration of 0.1 μg/ml) that can inhibit platelet aggregation was then added with to the whole blood, mixed quickly and centrifuged (1050 rpm, room temperature, 10 minutes). After two centrifuges, the upper plasma of the experimental group was sucked out, discarded and the platelet precipitate at the bottom was retained. The plasma of wild-type mice was evenly distributed to the platelet pellets of mice in the experimental group and wild-type group. The platelets were uniformly dispersed and suspended, and then preserved according to the method of human platelets.
In platelet transfusions, it is undesirable for stored platelets to be rapidly cleared from circulation. To evaluate the effects of the above compounds on the quality of platelets stored in vivo, two mouse transfusion models were used. In the first model, stored human platelets were transfused into immunodeficient NCG (NOD-Prkdcem26Cd52Il2rgem 26Cd22/NjuCrl) mice. NMN+NAC+AMPKi (NMN 0.5 mM, NAC 5 mM, AMPKi 4 uM) or PBS as a control was added. Human platelet concentrates were stored for 6 days in vitro. They were then labeled with biotin and infused into NCG mice. […] However, platelet clearance was lower in the NMN+NAC+AMPKi group compared to the control group (FIG. 8B). In another group of models, mouse PRP was stored in vitro for 1 day, added with NMN, NAC, AMPK inhibitor or NMN+NAC+AMPK inhibitor (NMN 0.5 mM, NAC 5 mM, AMPKi 4 uM) or PBS as a control. They were then labeled with biotin and infused into WT mice.

mouse platelets [5] = experiment: Mouse ITP model (anti-CD42b antibody R300); assay type: in vivo, mice; conditions: intravenous, combination 1 μmol NMN, 10 μmol NAC, 8 nmol AMPKi, vs control group
Experimental: WT mice were intravenously injected with NMN, NAC, AMPK inhibitor, or NMN+NAC+AMPK inhibitor. After 30 minutes, basal platelet counts were first determined from complete blood counts using a HEMAVET automated hematology analyzer. Mouse platelets were cleared by intravenous injection of 2 μg anti-CD42b monoclonal antibody R300 (purchased from Emfret). Orbital blood was collected at different time points to monitor platelet clearance and recovery.
To evaluate the effects of NMN, NAC or AMPK inhibitor on platelet survival in ITP patients, an ITP mouse model was established by intravenous injection of a low dose of anti-CD42b antibody R300.

[6] = tested on: human apheresis platelets; experiment: Storage quality of human apheresis platelets at room temperature; assay type: cell-based; conditions: summary statement of the results of the examples; substance used individually
Experimental: as §1
This method can simulate the storage of clinical apheresis platelets in a laboratory environment and can be used for sampling and the sampling is completed. The collected apheresis platelet samples can be used for platelet counting, flow cytometry index detection, protein collection, platelet viability detection, ATP content detection and other purposes.

rat platelets = experiment: Storage of rat platelet-rich plasma with added palmitoyl carnitine; assay type: cell-based, rats; conditions: palmitoyl carnitine 2 μM and 10 μM; days 1 and 2 of storage
Experimental: Whole blood was obtained from wild-type rats and wild-type mice via abdominal aortic puncture, and platelet-rich plasmas (PRP) were prepared separately for rats and mice. Platelet storage experiments were conducted, with two additional experimental groups each receiving the addition of palmitoyl carnitine at different concentrations (2 μM and 10 μM). Platelet apoptosis ratio, mitochondrial ROS level and changes in mitochondrial membrane potential were measured during storage days 0-4.

[7] = tested on: 293T cells stably transfected with CPT2, CPT2K79Q or CPT2K79R; experiment: Electron microscopy of mitochondria in CPT2 and CPT2 mutant stable transfected cell lines treated with palmitoylcarnitine; assay type: cell-based; conditions: 4 hours
Excerpt: A plasmid of pLVX-IRES-ZsGreen1 inserted with CPT2K79R, a plasmid of pLVX-IRES-ZsGreen1 inserted with CPT2K79Q, and a plasmid of pLVX-IRES-ZsGreen1 inserted with CPT2 were synthesized by Shanghai Sunny Biotechnology Co., Ltd. Lentiviral transfection, 293T cell infection, and stably transfected cell lines were all carried out by conventional methods.
To further verify the correlation between CPT2K79 acetylation and the accumulation of acylcarnitine, three plasmids were constructed: wild-type CPT2, CPT2K79R mutation, and CPT2K79Q mutation. These three plasmids were packaged into lentiviruses using a three-plasmid system for infecting 293T cells. The exogenous genes were integrated into the host genome, and […] stable transfected cell lines were selected through flow cytometry sorting. CPT2K79R is a CPT2 molecule with the mutation of lysine at position 79 to arginine, abolishing acetylation at position 79. CPT2K79Q is a CPT2 molecule with the mutation of lysine at position 79 to glutamine, simulating acetylation at position 79.
After treating CPT2 and CPT2 mutant stable transfected cell lines with acylcarnitine for 4 hours, the cells were fixed. Then electron microscopy was used to observe the status and structure of mitochondria in different cell lines treated with or without palmitoylcarnitine. […] In one embodiment, there were anomalies in the morphology and arrangement of mitochondrial cristae, and the cristae became disarrayed, fragmented and blurred, with bright areas appearing in the center of the mitochondria, indicating severe damage to the mitochondrial inner membrane structure.

mouse platelets [8] = experiment: Storage of mouse platelet-rich plasma with added palmitoyl carnitine; assay type: cell-based, mice; conditions: palmitoyl carnitine 2 μM and 10 μM; days 1 and 2 of storage; concentration-dependent trend
Experimental: as §2, with “platelets. Whole blood was obtained from wild-type rats and wild-type mice via abdominal aortic puncture, and platelet-rich plasmas (PRP) were prepared separately for rats and mice. Platelet storage experiments were conducted, with two additional experimental groups each receiving the addition of palmitoyl carnitine at different concentrations (2 μM and 10 μM). Platelet apoptosis ratio, mitochondrial ROS level and changes in mitochondrial membrane potential were measured during storage days 0-4.” for “platelets.”

[9] = N-acetylcysteine 5 mM, Mesna 50 uM, glutathione 200 uM, 7th day of storage
[10] = Dorsomorphin 2HCl 1 uM, 4 uM, AICAR 0.1 uM, 0.5 uM, 4th day of storage, vs control
[11] = added to freshly isolated platelets, second day of platelet storage, compared to the control group

N[C@@H](CCC(=O)N[C@@H](CS)C(=O)NCC(=O)O)C(=O)O [glutathione]
mitochondrial membrane potential [1, 9]: protected
platelet responsiveness to stimuli [2, 9]: protected
apoptosis ratio of platelets [3]: lower
accumulation of intracellular reactive oxygen species [4]: reduce

Cl.Cl.c1cc(-c2cnn3cc(-c4ccc(OCCN5CCCCC5)cc4)cnc23)ccn1 [Dorsomorphin 2HCl]
survival in vivo of stored platelets (stored mouse platelets): better than controls
mitochondrial membrane potential [1, 10]: varying degrees of improvement
platelet responsiveness to stimuli [2, 10]: varying degrees of improvement
platelet survival rate (mouse platelets [5]): higher
recovery rate of platelet counts (mouse platelets [5]): higher
apoptosis ratio [3]: varying degrees of improvement
mitochondrial reactive oxygen species levels [4]: varying degrees of improvement
quality of platelets [6]: significantly improved

CCCCCCCCCCCCCCCC(=O)OC(CC(=O)[O-])C[N+](C)(C)C (centres unmarked) [palmitoylcarnitine]
mitochondrial membrane potential [1, 11]: lower
status of rat platelets (rat platelets): did not cause significant changes
effect on the mitochondrial status ([7]; CPT2K79Q cell line, low concentrations of palmitoylcarnitine): particularly pronounced
effect on the mitochondrial status ([7]; CPT2K79R cell line, low-dose palmitoylcarnitine): little effect
mitochondria (electron microscopy) ([7]; three cell lines, low concentrations of palmitoylcarnitine, vs group without palmitoylcarnitine): significantly worse
status of mouse platelets (mouse platelets [8]): effectively reduced
apoptosis rates [3, 11]: higher
levels of mitochondrial reactive oxygen species [4, 11]: higher

O=S(=O)([O-])CCS.[Na+] [Mesna, sodium 2-mercaptoethane sulfonate]
mitochondrial membrane potential [1, 9]: protected
platelet responsiveness to stimuli [2, 9]: protected
apoptosis ratio of platelets [3]: lower
accumulation of intracellular reactive oxygen species [4]: reduce

NC(=O)c1cccnc1 [NAM, nicotinamide]
quality of platelets [6]: significantly improve

OC(CNc1ccccc1)Cn1c2ccc(Br)cc2c2cc(Br)ccc21 (centres unmarked) [P7C3]
quality of platelets [6]: significantly improve

NC(=O)c1ccc[n+]([C@@H]2O[C@H](COP(=O)([O-])O)[C@@H](O)[C@H]2O)c1 [NMN, nicotinamide mononucleotide]
survival in vivo of stored platelets (stored mouse platelets): better than controls
platelet survival rate (mouse platelets [5]): higher
recovery rate of platelet counts (mouse platelets [5]): higher
quality of platelets [6]: significantly improved

O=C(NCc1ccncc1)Nc1ccc(S(=O)(=O)N2CC3CCC(C2)O3)cc1 [SBI-797812]
quality of platelets [6]: significantly improve

CC(=O)N[C@@H](CS)C(=O)O [N-acetylcysteine]
survival in vivo of stored platelets (stored mouse platelets): better than controls
mitochondrial membrane potential [1, 9]: protected
platelet responsiveness to stimuli [2, 9]: protected
platelet survival rate (mouse platelets [5]): higher
recovery rate of platelet counts (mouse platelets [5]): higher
apoptosis ratio of platelets [3]: lower
accumulation of intracellular reactive oxygen species [4]: reduce
quality of platelets [6]: significantly improved

NC(=O)c1ccc[n+]([C@@H]2O[C@H](CO)[C@@H](O)[C@H]2O)c1 [NR, nicotinamide riboside]
quality of platelets [6]: significantly improve

NC(=O)c1ncn([C@@H]2O[C@H](CO)[C@@H](O)[C@H]2O)c1N [AICAR]
mitochondrial membrane potential [1, 10]: significant decrease
platelet responsiveness to stimuli [2, 10]: detrimental
apoptosis ratio [3]: increased
mitochondrial reactive oxygen species levels [4]: elevation
